The test system of assay [1] is GR. Also noted: method as in PMID 27612544. The settings on record: ref [14], cited from earlier work; for % inhibition of GR ligand binding: 1.5 nM [3H]-dexamethasone, 1 µM ligand; for IC50 / Ki: displacement of radiolabeled Dex; for IC50: read-out: IC50 (GR radioligand binding); for Ki: read-out: Ki (GR radioligand binding); for displacement of radiolabeled Dex: cell-based ligand-binding competition assay.

Assay [2] relates to GR nuclear translocation in A549 cells. Put plainly: Immunofluorescence of nuclear GR translocation in A549 cells. The settings on record: serum starved A549 cells, 1 µM, 30 min. The assay is classed as cell-based, human. The protocol: To detect endogenous GR in A549 cells, cells were grown in serum free media for 24 h followed by treatment with 1 µM of specific GR ligands. After 30 min of treatment, cells on the cover glass were fixed in 4% formaldehyde in phosphate-buffered saline (PBS), permeabilized with 0.3% Triton X-100–PBS, and then blocked in 5% milk, 10% FCS, 0.3% bovine serum albumin, and 0.3% Triton X-100 in PBS for 30 min at room temperature. Primary antibodies against anti GR-antibody (SantaCruz Biotechnology) were used at a dilution of 1:200. Nuclei were stained by DAPI and samples were analyzed using a confocal Leica LSM410 microscope. To quantify nuclear translocation of GR in a standardized manner, multichannel fluorescence images were analyzed using a script for FIJI image analysis freeware (http://fiji.sc) that is essentially based on a pipeline described before (CellBlocks.ijm) ([39]), and is available upon request. In brief, the analysis first segments nuclei in the Hoechst/DAPI channel and then uses the nuclear mask to define perinuclear cytoplasmic regions of interest (ROIs). Nuclei are detected after local contrast enhancement and Gaussian smoothing to, respectively, cover for spatial illumination heterogeneity and noise. After automatic thresholding (Isodata algorithm), touching nuclei are separated using a conditional watershed algorithm ([40]). Next, cytoplasmic ROIs are determined as concentric bands around the nuclei by Voronoi-restrained region growing ([41]). Finally, the average intensity of the GR channel is measured in both the nuclear and cytoplasmic ROIs and the nuclear-to cytoplasm signal intensity ratio (N/C Ratio) is calculated per cell (Figure S1 in Supplementary Material) ([42]).
Figure 6 Selective glucocorticoid receptor agonist GSK866 analogs UAMC-1217, UAMC-1218, but not UAMC-1158 and UAMC-1159 trigger nuclear glucocorticoid receptor (GR) translocation. (A) Serum starved A549 cells were left solvent treated or treated for 30 min with 1 µM Dex, Dex-mesylate (Dex-Mes), GSK866, UAMC-1158, UAMC-1159, UAMC-1217, or UAMC-1218. GR translocation was evaluated by immunofluorescence whereas nuclei were stained by DAPI dye. Magnification is at 100×. White scalebars represent […]. (B) Automated image quantification of GR translocation of three replicate immunofluorescence images of the different experimental setups.

For assay [3], the system named is TNF-induced NFκB reporter gene activity in L929sA cells. Put plainly: p(NFκB)3-50luc reporter gene assay with TNF (NFκB transrepression). The class given is cell-based. The settings on record: TNF 2,500 IU/ml; for NFκB transrepression in NFκB-luc reporter: dose range. The procedure: (§1) In order to compare transactivation and transrepression potencies of the different synthesized GSK866 analogs, we performed GRE- and NFκB-luciferase-dependent reporter gene studies in stable transfected cell lines, as previously described ([3], [8]). HaCat cells expressing p(GRE)2 50-Luc and L929sA cells expressing p(GRE)250-Luc or p(NFκB)350-Luc were cultured in DMEM medium with 1% L-glutamine, supplemented with 10% feral bovine serum (FBS), 100 µg/ml streptomycin, and 100 IU/mL penicillin in a humidified 5% CO2 atmosphere. Cells were passaged every 2 days at a dilution of 1:6. Reporter gene cells were plated at a density of 0.5 × 10^5 cells/well in 24 well plates and grown overnight. p(GRE)250-Luc-dependent reporter gene cells were treated with solvent (DMSO) or compound (100 fM, 1 nM, 10 nM, 100 nM, and 1 µM) for 6 h, whereas in case of p(NFκB)350-Luc, TNF (2,500 IU/mL) was added 2 h following compound treatment. After incubation with the compounds, medium was removed and cells were washed twice with PBS followed by adding 100 µl of 1× lysis buffer (0.2 M K2HPO4, 0.2 M KH2PO4, Triton X-100, pH 7.6). 25 µl of lysate was assayed for luciferase activity by adding 50 µl of luciferase assay substrate (1 mM luciferin or luciferin salt, 3 mM ATP, and 15 mM MgSO4 in 30 mM HEPES buffer, pH 7.8) followed by 10 s mixing and measuring 1 s bioluminescence using an Envision multilabel reader (Perkin Elmer).
(§2) Figure 3 Selective glucocorticoid receptor agonist GSK866 analogs UAMC-1217, UAMC-1218 but not UAMC-1158 and UAMC-1159 elicit selective glucocorticoid receptor-transactivation and NFκB-transrepression properties. Glucocorticoid response element (GRE)- and NFκB-luciferase-dependent reporter gene assays were performed in L929sA and HaCat reporter cells which were stably transfected with, respectively, p(NFκB)3-50luc or p(GRE)2-50-luc constructs. For p(GRE)2-50-luc reporter assays, cells were solvent-treated or induced with different concentrations of Dex (A), Dex-mesylate (Dex-Mes) (A), SEGRA GSK866 (C) or analogs UAMC-1158 (D), UAMC-1159 (E), UAMC-1217 (F), and UAMC-1218 (G) as indicated for a total exposure time of 6 h, whereas cells were cotreated for TNF (2,500 IU/ml) in the last 4 h for p(NFkB)3-50luc reporter assays (B–G). Corresponding lysates were assayed for luciferase activities and normalized for protein content as described in the Section “Materials and Methods.” Promoter activities are expressed as relative induction factor (± standard deviation) i.e., the ratio of expression levels recorded either at induced and non-induced conditions, with the latter taken to be 1.
In general terms: In a reporter assay the amount or activity of a reporter protein is the signal.

In assay [4] the test system is GR transactivation, p(GRE)2-50-luc reporter in HaCat cells. The assay is described as follows: p(GRE)2-50-luc reporter gene assay (GR transactivation). The class given is cell-based. Particulars: 6 h; for GR transactivation in GRE-luc reporter: concentration range 10^−6–10^−10 M. The protocol:
as §1, §2

Assay [5] deals with GR Ser211 phosphorylation. Put plainly: Western blot of GR Ser211 phosphorylation. The assay is classed as cell-based. Particulars: 1 µM, 6 h (UAMC-1158: Figure S2, 4 or 24 h). The protocol: Whole cell extracts contain multiple protease inhibitors (Complete Mini®, Roche) and Halt phosphatase inhibitor cocktail (Thermoscientific). Soluble protein extracts were obtained after three times freeze and thaw cycles and centrifugation at […] for 15 min at 4°C. Samples were separated by sodium dodecyl sulfate-polyacrylamidegel electrophoresis (SDS-PAGE) and transferred onto nitrocellulose membranes (Hybond C, Amersham) following standard protocols. After blocking, membranes were incubated overnight at 4°C with the primary antibodies: anti-GR (sc-8992, SantaCruz Biotechnology), anti-phospho-GR Ser211 (4161, Cell Signalling) and anti-Actin (A3853, Sigma-Aldrich) followed by dye-conjugated secondary antibodies (LI-COR® Biosciences). Bound complexes were detected with the Odyssey® infrared imaging system (LI-COR®) and quantified by Image J software.
Figure 5 Selective glucocorticoid receptor agonist GSK866 and its analogs UAMC-1217, UAMC-1218 trigger glucocorticoid receptor (GR) Ser211 phosphorylation. (A) Western detection of expression levels of Actin, GR, and GR Ser S211 phosphorylation in HaCat cells following 6 h treatment with 1 µM Dex, UAMC-1217, UAMC-1218, or GSK866. (B) Bar plot representation of Western blot intensities of Actin, GR, and GR Ser S211 phosphorylation observed in panel A, as quantified by Image J. (C) Western detection of expression levels of Actin, GR expression, and Ser S211 phosphorylation in HaCat cells following 6 h treatment with, respectively, 10, 100, or 1,000 nM Dex or UAMC-1217. (D) Bar plot representation of Western blot intensities of Actin, GR, and GR Ser S211 phosphorylation observed in panel (C), as quantified by free Image J software.

A further assay relates to recombinant GR-LBD (hGR). Put plainly: Mass spectrometry of tryptic peptides of recombinant GR-LBD after ligand incubation (covalent binding). More on the design: species or system human. The settings on record: 2 h at 37°C, trypsin digestion, LC-MS/MS.
The subject of assay [6] is GR. Put plainly: Cell-based GR ligand-binding competition assay with [3H]-dexamethasone. Particulars: from IC50 values of ligand displacement assays; ref [14].

Experimental for recombinant GR-LBD (hGR): Recombinant His6-MBP-mCaspase3 site-LBD-hGR was expressed in the Escherichia coli strain BL21codon + pICA2 that was transformed with the corresponding pLHM36LBD-hGR plasmid and in which expression was induced by Isopropyl β-D-1-thiogalactopyranoside (IPTG) under control of a pL-promotor. The transformed bacteria were grown in Luria Bertani medium supplemented with ampicillin (100 µg/ml) and kanamycin (50 µg/ml) overnight at 28°C before 1/100 inoculation in 12 × 0.5 l provided with Luria Bertani medium supplemented with ampicillin (100 µg/ml) and 1% glycerol in a shaker incubator. The cells were grown to an optical density at AU 600 nm of 0.65, transferred to 20°C and expression was induced by addition of 1 mM IPTG overnight. Cells were then harvested and frozen at −20°C. […] After thawing, the cells were re-suspended at 3 ml/g in cold 20 mM Tris-HCl pH 7.4, 200 mM NaCl, 1 mM EDTA, 1 tablet complete protease inhibitor cocktail from Roche/50 ml, and 10 mM β-mercaptoethanol. The cytoplasmic fraction was prepared by sonication of the cells on ice and isolated by centrifugation at 18,000 × g for 30 min. All further purification steps were conducted at 4°C. The clear supernatant was applied to an amylase column (BioLabs, XK26 × 20, 100 ml), equilibrated with 20 mM Tris–HCl pH 7.4, 200 mM NaCl, 1 mM EDTA, and 10 mM β-mercaptoethanol. The column was eluted with 20 mM Tris–HCl pH 7.4, 200 mM NaCl, 1 mM EDTA, 10 mM maltose, and 10 mM β-mercaptoethanol. […] Recombinant purified His-MBP-DEVD-GR-LBD fusion protein was dissolved at a concentration of 1 mg in 1.7 ml PBS buffer.
Each aliquot was incubated 2 h at 37°C. […] 120 µl of each sample was loaded onto a spin column and the flow-through was collected (1,500 × g, 2 min). Trypsin (5 µl of 20 mM stock solution) was added, and the samples were incubated 20 h at 37°C. Then, 0.1% FA (formic acid) (41.5 µl) and 20 mM TCEP in 0.1% FA (18.5 µl, 5.7 mg TCEP/ml) were added [final volume = 185 µl, final concentration TCEP = 2 mM, 1 µg material/2.5 μl], and the samples were subjected to LC–MS/MS analysis.
The obtained peptide mixtures were introduced onto an LC–MS/MS system; the Ultimate 3000 RSLC nano (Dionex, Amsterdam, The Netherlands) in-line connected to an LTQ-Orbitrap Velos (Thermo Fisher Scientific, Bremen, Germany). The sample mixture was loaded on a trapping column [made in-house, 100 µm internal diameter (I.D.) × 20 mm, 5 µm C18 beads (Reprosil-HD, Dr. Maisch)]. After back flushing from the trapping column, the sample was loaded on a reverse-phase column [made in-house, 75 µm I.D. × 150 mm, 5 µm C18 beads (Reprosil-HD, Dr. Maisch)].
The mass spectrometer was operated in data-dependent mode, automatically switching between MS and MS/MS acquisition for the 10 most abundant peaks in a given MS spectrum. […]

The IC50 is the concentration at which inhibition is half-maximal. A word on the Ki: it is the equilibrium dissociation constant of an inhibitor or competing ligand from its target. For the compound `C[C@@H]1C[C@H]2[C@@H]3CCC4=CC(=O)C=C[C@]4(C)[C@@]3(F)[C@@H](O)C[C@]2(C)[C@@]1(O)C(=O)COS(C)(=O)=O` [Dex-Mes, dexamethasone-21-mesylate, reference compound], in the assay with GR [1], the “% inhibition of GR ligand binding” value was 99%, the IC50 is 7.3 nM and the Ki was 3.7 nM. Moreover, in assay [2], the “nuclear GR translocation” value was “induce (partial) translocation of GR from the cytosol to the nucleus”. For the same compound, the “inhibition of TNF-induced NFκB reporter gene activity” value in assay [3] (10 nM compound) is given as 40–45%. For the same compound, in assay [4], the “GR transactivation in GRE-luc reporter” value was “weaker dose-dependent GR-dependent transactivation than Dex”.

`CCN(C[C@@](O)(CNC(=O)c1cnn(-c2ccc(F)cc2)c1N)C(F)(F)F)C(=O)c1c(Cl)cccc1Cl` [GSK866]: in the assay with GR [1], the “% inhibition of GR ligand binding” value was 100%, the IC50 is 4.6 nM and the Ki is 2.3 nM. Further, in assay [2], the “nuclear GR translocation” value was “induce (partial) translocation of GR from the cytosol to the nucleus”. The “GR Ser211 phosphorylation” value in assay [5] was “enhance the Ser211 phosphorylation”. In assay [3], the “NFκB transrepression in NFκB-luc reporter” value (shortened to “NFκB transrepression”) is on record as “dose-dependent NFκB-transrepression effects”. Also, in assay [4], the “GR transactivation in GRE-luc reporter at 10 nM” value was “significant GR transactivation” and the “GR transactivation in GRE-luc reporter” value was “strong GR agonistic activities”.

In the case of `CCN(C[C@@](O)(CNC(=O)c1cnn(-c2ccc(F)cc2)c1N)C(F)(F)F)C(=O)CCN1C(=O)C=CC1=O` [UAMC-1158], in the assay on GR [1], the “% inhibition of GR ligand binding” value is listed as −2% and the “displacement of radiolabeled Dex” value was “failed to show displacement of radiolabeled Dex”. Also, in assay [2], the “nuclear GR translocation” value was “completely ineffective”. The “GR Ser211 phosphorylation” value in assay [5] is on record as “failed to show any change in GR phosphorylation status”. In assay [3], the “NFκB transrepression” value is recorded as “completely ineffective”. Besides, the “GR transactivation in GRE-luc reporter” value in assay [4] was “completely fail to elicit any GR transactivation at any dose tested”.

As to `CCN(CC(O)(CNC(=O)c1cnn(-c2ccc(F)cc2)c1N)C(F)(F)F)C(=O)C1CCCN1C(=O)CCl` (stereo not drawn) [UAMC-1159], in the assay with GR [1], the “% inhibition of GR ligand binding” value was −12% and the “displacement of radiolabeled Dex” value is “failed to show displacement of radiolabeled Dex”. For the same compound, the “nuclear GR translocation” value in assay [2] is listed as “completely ineffective”. In assay [3], the “NFκB transrepression” value was “completely ineffective”. Further, the “GR transactivation in GRE-luc reporter” value in assay [4] was “completely fail to elicit any GR transactivation at any dose tested”.

A word on the inhibition: it is the relative decrease from the control value, in per cent. A higher inhibition goes with a response far below the control. Consider `C=CC(=O)Nc1ccc(Cl)c(C(=O)N(CC)C[C@@](O)(CNC(=O)c2cnn(-c3ccc(F)cc3)c2N)C(F)(F)F)c1Cl` [UAMC-1218], for which, in the assay with GR [1], the “% inhibition of GR ligand binding” value is 96%, the IC50 is 34 nM and the Ki is 17 nM. Besides, in assay [2], the “nuclear GR translocation” value is “induce (partial) translocation of GR from the cytosol to the nucleus”. Also, in assay [5], the “GR Ser211 phosphorylation” value is on record as “enhance the Ser211 phosphorylation”. In addition, in the assay with recombinant GR-LBD (hGR), the “Modifications: GR-LBD cysteine-containing peptide covalently bound” value is “Cys-622”. Further, in the assay on recombinant GR-LBD (hGR) (listed as 1218), the “Modifications: GR-LBD cysteine-containing peptide covalently bound” value was “Peptide 615–633 → C622”. Further, the inhibition at 0.01 µM in assay [3] (L929sA, 10 nM compound) is roughly 95%. The “NFκB transrepression” value in assay [3] is listed as “dose-dependent NFκB-transrepression effects”. Also, the “fold lower GR-LBD affinity versus GSK866” value with GR [6] is given as “approx. 5 fold”. Further, the “GR transactivation in GRE-luc reporter at 10 nM” value in assay [4] is “significantly reduced GR transactivation to levels below transactivation observed with 10 nM of Dex”.

Source of the values: article PMC5672024, “Selective Glucocorticoid Receptor Properties of GSK866 Analogs with Cysteine Reactive Warheads” (Frontiers in Immunology, 2017).
